Paper PMC6430017, “Structural and chemical insights into the covalent-allosteric inhibition of the protein kinase Akt” (Chemical Science, 2019)

Legend:
Assay in all cases: SelectScreen Z'LYTE kinase profiling
Assay type in all cases: biochemical
Conditions in all cases: ATP at apparent KM
PDK1 Direct = target: T1, PDK1 Direct (Homo sapiens, UniProt O15530)
T1 sequence (O15530 1-556): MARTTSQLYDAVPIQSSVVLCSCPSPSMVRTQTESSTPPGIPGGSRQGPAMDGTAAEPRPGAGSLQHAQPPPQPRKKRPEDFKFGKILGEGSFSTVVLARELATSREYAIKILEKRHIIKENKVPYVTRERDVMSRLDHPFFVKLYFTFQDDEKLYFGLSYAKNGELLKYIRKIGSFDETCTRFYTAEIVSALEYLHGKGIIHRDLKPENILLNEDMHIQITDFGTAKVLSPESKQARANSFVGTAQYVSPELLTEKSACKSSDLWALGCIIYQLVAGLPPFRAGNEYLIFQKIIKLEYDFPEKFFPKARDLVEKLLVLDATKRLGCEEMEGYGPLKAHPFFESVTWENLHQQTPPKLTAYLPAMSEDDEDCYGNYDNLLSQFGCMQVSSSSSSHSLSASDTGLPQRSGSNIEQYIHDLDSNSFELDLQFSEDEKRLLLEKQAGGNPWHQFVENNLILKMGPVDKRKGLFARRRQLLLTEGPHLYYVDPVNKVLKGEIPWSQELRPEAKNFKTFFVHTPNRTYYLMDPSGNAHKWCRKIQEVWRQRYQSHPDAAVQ
Description: (§1) protein kinases at a compound concentration of 1 µM. Measurements were performed in duplicates
(§2) and at the particular apparent ATP KM of each individual kinase employing the activity based Z’LYTE®
(§3) kinase assay of the SelectScreen® Kinase Profiling Services (ThermoFisher Scientific).
(§4) kinases at a compound concentration of 1 µM. Measurements were performed in duplicates and at
(§5) the particular apparent ATP KM of each individual kinase employing the activity based Z’LYTE® kinase
(§6) assay of the SelectScreen® Kinase Profiling Services (ThermoFisher Scientific).

CHEK2 (CHK2) = CHEK2 (CHK2) (Homo sapiens, UniProt O96017)
Sequence of CHEK2 (CHK2) (O96017 whole entry): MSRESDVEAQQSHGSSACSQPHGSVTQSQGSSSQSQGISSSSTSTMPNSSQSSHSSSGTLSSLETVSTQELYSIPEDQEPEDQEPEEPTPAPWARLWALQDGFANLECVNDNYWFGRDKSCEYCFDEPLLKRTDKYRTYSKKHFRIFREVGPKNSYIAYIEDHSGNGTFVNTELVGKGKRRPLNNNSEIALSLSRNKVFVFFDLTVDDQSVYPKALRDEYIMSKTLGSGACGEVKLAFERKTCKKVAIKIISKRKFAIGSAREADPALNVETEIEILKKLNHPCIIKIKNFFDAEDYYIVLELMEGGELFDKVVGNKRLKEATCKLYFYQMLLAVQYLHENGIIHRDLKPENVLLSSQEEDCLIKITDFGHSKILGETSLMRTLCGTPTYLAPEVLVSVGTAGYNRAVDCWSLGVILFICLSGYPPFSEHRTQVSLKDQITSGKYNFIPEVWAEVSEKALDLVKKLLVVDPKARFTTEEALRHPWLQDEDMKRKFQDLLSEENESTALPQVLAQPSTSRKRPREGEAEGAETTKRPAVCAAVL
Description: as §1, §2, §3, §4, §5, §6

RPS6KA2 (RSK3) = RPS6KA2 (RSK3) (Homo sapiens, UniProt Q15349)
Sequence of RPS6KA2 (RSK3) (Q15349 whole entry): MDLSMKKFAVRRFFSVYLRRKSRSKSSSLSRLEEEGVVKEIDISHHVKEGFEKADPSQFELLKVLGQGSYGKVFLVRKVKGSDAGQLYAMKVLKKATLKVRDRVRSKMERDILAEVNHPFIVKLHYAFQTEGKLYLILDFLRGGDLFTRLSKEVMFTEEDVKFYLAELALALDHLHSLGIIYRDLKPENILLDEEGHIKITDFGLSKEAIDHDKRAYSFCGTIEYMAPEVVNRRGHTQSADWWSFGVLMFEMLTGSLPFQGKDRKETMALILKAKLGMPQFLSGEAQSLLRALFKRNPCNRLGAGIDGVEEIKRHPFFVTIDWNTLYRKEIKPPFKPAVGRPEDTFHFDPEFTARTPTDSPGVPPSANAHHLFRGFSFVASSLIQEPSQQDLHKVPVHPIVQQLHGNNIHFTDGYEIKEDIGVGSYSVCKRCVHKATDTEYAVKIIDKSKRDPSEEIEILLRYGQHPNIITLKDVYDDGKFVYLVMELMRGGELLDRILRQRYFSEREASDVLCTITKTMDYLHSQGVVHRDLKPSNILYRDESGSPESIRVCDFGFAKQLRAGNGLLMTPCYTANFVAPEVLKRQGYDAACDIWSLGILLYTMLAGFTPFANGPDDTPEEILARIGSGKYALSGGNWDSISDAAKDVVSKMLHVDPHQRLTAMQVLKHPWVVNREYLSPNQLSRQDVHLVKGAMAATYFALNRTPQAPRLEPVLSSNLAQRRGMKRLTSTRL
Description: as §1, §2, §3, §4, §5, §6

PAK4 = PAK4 (Homo sapiens, UniProt O96013)
Sequence of PAK4 (O96013 whole entry): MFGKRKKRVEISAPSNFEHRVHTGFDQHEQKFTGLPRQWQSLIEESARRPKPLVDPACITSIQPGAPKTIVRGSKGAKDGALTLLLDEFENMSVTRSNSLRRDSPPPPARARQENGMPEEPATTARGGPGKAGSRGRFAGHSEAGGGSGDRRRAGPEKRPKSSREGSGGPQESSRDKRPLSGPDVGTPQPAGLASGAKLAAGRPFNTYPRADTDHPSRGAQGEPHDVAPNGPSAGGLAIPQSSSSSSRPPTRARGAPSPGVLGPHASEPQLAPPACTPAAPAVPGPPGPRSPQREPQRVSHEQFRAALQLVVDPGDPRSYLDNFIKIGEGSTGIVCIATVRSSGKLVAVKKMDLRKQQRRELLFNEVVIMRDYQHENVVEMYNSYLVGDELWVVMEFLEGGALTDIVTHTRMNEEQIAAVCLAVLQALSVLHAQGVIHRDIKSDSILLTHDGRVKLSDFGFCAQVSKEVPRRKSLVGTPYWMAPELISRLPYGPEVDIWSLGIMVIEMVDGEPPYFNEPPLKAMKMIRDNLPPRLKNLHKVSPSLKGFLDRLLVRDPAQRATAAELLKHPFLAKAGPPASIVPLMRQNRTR
Description: as §1, §2, §3, §4, §5, §6

BRSK1 (SAD1) = target: T2, BRSK1 (SAD1) (Homo sapiens, UniProt Q8TDC3)
T2 sequence (Q8TDC3 1-778): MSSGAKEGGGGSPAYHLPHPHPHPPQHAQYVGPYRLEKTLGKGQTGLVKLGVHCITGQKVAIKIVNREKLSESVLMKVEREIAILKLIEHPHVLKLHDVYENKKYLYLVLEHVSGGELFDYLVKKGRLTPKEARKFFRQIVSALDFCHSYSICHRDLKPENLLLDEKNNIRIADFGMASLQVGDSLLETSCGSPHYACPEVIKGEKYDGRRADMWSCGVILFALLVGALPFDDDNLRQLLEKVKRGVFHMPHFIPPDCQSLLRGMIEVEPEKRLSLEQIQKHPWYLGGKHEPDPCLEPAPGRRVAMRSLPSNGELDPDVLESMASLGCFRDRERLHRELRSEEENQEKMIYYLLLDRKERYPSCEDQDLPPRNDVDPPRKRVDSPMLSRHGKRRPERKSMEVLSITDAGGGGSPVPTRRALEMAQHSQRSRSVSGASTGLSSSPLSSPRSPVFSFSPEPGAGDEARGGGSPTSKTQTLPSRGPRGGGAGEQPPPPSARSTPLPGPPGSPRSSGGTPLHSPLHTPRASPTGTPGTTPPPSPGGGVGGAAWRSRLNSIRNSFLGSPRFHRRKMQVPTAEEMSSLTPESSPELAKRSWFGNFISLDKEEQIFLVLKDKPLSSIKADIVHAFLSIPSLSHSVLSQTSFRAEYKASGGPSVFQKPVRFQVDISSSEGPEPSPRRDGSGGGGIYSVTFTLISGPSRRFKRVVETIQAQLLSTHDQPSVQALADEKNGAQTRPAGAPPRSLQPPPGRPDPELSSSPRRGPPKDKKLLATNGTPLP
Description: as §1, §2, §3, §4, §5, §6

JAK3 = target: T3, JAK3 (Homo sapiens, UniProt P52333)
T3 sequence (P52333 1-1124): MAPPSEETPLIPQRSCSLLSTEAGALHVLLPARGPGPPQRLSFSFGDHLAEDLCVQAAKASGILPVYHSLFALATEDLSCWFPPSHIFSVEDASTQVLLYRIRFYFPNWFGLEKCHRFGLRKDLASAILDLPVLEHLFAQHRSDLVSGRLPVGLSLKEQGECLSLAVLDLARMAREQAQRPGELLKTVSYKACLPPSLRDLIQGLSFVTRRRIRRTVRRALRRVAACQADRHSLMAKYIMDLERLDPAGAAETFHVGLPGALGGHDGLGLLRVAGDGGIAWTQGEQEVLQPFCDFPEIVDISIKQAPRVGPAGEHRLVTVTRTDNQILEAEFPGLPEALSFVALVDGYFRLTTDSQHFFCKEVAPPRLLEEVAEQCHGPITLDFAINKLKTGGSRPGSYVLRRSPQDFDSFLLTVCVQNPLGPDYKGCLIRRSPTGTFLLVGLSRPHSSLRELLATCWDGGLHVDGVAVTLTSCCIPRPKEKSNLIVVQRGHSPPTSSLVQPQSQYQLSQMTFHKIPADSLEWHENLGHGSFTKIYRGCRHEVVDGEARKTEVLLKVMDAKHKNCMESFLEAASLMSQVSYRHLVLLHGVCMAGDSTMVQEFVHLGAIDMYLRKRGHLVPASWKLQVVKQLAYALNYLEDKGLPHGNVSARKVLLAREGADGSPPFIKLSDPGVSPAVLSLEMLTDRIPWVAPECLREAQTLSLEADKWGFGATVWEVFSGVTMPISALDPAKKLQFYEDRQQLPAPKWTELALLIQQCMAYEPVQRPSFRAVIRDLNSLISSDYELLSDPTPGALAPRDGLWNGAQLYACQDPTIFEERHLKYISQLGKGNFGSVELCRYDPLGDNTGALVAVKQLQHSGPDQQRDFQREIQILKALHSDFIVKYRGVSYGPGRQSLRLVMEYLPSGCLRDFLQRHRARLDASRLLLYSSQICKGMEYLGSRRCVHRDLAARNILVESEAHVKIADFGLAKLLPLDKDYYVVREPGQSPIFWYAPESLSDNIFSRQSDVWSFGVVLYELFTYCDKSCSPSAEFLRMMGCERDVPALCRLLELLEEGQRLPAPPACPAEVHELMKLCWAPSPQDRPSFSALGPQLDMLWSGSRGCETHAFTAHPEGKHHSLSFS
Description: as §1, §2, §3, §4, §5, §6

ALK = ALK (Homo sapiens, UniProt Q9UM73)
Sequence of ALK (Q9UM73 19-1620): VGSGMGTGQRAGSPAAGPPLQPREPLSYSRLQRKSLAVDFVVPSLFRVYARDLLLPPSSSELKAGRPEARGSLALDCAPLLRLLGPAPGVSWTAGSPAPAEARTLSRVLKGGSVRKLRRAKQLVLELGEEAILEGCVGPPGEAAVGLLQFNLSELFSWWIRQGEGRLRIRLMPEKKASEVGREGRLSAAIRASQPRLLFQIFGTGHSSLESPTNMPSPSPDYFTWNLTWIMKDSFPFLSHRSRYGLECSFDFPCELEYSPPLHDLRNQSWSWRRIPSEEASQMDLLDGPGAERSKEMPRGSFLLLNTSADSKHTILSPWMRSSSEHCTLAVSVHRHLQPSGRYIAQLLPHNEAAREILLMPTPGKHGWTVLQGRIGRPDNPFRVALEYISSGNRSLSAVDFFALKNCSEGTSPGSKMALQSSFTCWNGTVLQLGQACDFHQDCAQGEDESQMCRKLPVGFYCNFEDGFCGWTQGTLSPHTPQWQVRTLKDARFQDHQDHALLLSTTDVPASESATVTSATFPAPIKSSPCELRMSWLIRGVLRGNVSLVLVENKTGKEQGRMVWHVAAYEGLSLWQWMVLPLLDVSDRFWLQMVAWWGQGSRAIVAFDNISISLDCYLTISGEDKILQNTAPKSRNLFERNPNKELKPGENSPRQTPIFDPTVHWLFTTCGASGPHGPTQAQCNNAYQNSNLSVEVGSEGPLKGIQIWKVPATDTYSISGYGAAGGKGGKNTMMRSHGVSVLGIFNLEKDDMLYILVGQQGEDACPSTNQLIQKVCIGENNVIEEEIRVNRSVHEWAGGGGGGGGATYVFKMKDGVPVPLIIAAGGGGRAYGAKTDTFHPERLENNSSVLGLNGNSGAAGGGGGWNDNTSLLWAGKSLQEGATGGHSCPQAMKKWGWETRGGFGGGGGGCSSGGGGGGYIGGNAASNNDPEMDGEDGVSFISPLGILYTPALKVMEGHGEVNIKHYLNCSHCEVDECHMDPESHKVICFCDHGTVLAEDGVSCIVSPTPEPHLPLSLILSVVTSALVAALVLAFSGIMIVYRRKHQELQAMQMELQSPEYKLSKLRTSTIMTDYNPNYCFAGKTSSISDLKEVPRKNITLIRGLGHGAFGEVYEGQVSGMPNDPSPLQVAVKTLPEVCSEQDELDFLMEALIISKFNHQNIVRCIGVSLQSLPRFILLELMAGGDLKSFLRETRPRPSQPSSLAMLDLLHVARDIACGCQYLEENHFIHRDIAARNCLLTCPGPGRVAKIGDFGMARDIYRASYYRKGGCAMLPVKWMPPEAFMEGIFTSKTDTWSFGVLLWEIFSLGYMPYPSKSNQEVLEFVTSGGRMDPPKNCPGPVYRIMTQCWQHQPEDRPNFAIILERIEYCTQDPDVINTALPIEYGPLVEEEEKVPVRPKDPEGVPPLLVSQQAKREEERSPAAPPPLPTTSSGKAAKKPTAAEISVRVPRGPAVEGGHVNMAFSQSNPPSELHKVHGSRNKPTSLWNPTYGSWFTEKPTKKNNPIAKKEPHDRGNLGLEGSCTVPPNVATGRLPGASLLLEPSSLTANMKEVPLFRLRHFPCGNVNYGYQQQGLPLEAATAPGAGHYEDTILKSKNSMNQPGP
Description: as §1, §2, §3, §4, §5, §6

Structure (SMILES)	inhibition at 1 µM (PDK1 Direct) [%]	inhibition at 1 µM (CHEK2 (CHK2)) [%]	inhibition at 1 µM (RPS6KA2 (RSK3)) [%]	inhibition at 1 µM (PAK4) [%]	inhibition at 1 µM (BRSK1 (SAD1)) [%]	inhibition at 1 µM (JAK3) [%]	inhibition at 1 µM (ALK) [%]
C=CC(=O)Nc1cccc(C(=O)NC2CCN(Cc3ccc(-c4nc5cc[nH]c(=O)c5cc4-c4ccccc4)cc3)CC2)c1 [30b]	1	-12	33	8	7	26	1
C=CC(=O)Nc1cc(NC(=O)NC2CCN(Cc3ccc(-c4nc5cc[nH]c(=O)c5cc4-c4ccccc4)cc3)CC2)ccc1Cl [compound 27]	3	1	31	16	16	17	2
C=CC(=O)Nc1ccc2c(c1)n(C1CCN(Cc3ccc(-c4nc5cc[nH]c(=O)c5cc4-c4ccccc4)cc3)CC1)c(=O)n2C [24b]	8	-13	25	12	2	23	-3
